The text below walks through data of paper PMC8398779, “VEGFR-Mediated Cytotoxic Activity of Pulicaria undulata Isolated Metabolites: A Biological Evaluation and In Silico Study” (Life, 2021).

One test has as its system VEGFR-2. Put plainly: Immunohistochemistry of VEGFR-2 expression in EAC tumor tissue. Format: in vivo, Swiss albino female mice. The conditions noted are these: day 21, extract 200 mg/kg PO, compounds 50 mg/kg PO, vs control EAC. The protocol: (§1) Swiss albino female mice obtained from the Egyptian Organization for Biological Products and Vaccines (Vacsera, Egypt), and weighing 25–30 g were used. The mice were kept in plastic cages with mesh floor and hardwood bedding at 25 °C temperature under normal light/dark cycle, with water and food provided ad libitum. Mice were left to acclimatize for 1 week before the experiments. They were randomly divided into nine groups (7 mice each). The first group served as the normal group and received saline. EAC cells were inoculated in all other groups. Group 2 was considered the EAC control. Group 3 received (200 mg/kg) of P. undulata extract PO three times weekly. Groups (4–9) received (50 mg/kg) of Xanthoxyline, Oleanolic acid, Stigmasterol, Salvigenin, Rhamnetin and Dihydroquercetin 4′-methyl ether, respectively, PO three times daily. All compounds were dissolved in saline.
The day of tumor inoculation was considered as day zero (0). […]
(§2) For immunohistochemical examination, the tumor discs were fixed in 10% neutral buffered formalin overnight and then embedded in paraffin. When analyzed, all paraffin-embedded tissues were sectioned at 4-μm, deparaffinized in xylene, and hydrated through graded ethyl alcohol series in decreasing concentrations (100%, 90%, 80% and 70%). […] The expression of VEGFR-2 and CD34 were assessed and percentage of stained area was measured.

For a further test, the system named is normal Vero cell line. Put plainly: Sulphorhodamine B (SRB) assay on normal Vero cell line. The conditions noted are these: Chlorocebus sabaeus, 48 h. A general note: Sulforhodamine B stains cellular protein and so reports cell mass.
The test system of test [1] is breast cancer cell line (MCF-7). Put plainly: Sulphorhodamine B (SRB) antiproliferative assay on MCF-7. The conditions noted are these: Homo sapiens, MCF7, 48 h.
Description: The potential cytotoxic activities of the P. undulata extract and isolated compounds against breast cancer cell line (MCF-7) were evaluated using a Sulphorhodamine-B (SRB) assay.
The subject of test [2] is Ehrlich ascites carcinoma (EAC) solid tumors. Put plainly: Weight of EAC solid tumors in mice. The conditions noted are these: day 21, extract 200 mg/kg PO, compounds 50 mg/kg PO, days 7-21, vs control EAC. Format: in vivo, Swiss albino female mice. As to the method: Cells of EAC were purchased from Tumor Biology Department, National Cancer Institute, Cairo University. EAC is a murine spontaneous breast cancer that served as the original tumor from which an ascites variant was obtained. Ascetic fluid was aspired under aseptic conditions from the peritoneal cavity of tumor-bearing mice. The viability and contamination of EAC cells were tested using trypan blue dye exclusion technique. Trypan blue dye stains dead cells only. EAC cells with 90% viability or more were suspended in normal saline (2.5 × 10^6 cells/0.1 mL). The mice were inoculated intradermally with 0.l ml EAC suspension on the lower ventral side after shaving.
as §1, with “Groups (4–9) received (50 mg/kg) of Xanthoxyline, Oleanolic acid, Stigmasterol, Salvigenin, Rhamnetin and Dihydroquercetin 4′-methyl ether, respectively, PO three times daily. All compounds were dissolved in saline.” left out

In another test the test system is CD34. Put plainly: Immunohistochemistry of CD34 expression in EAC tumor tissue. Format: in vivo, Swiss albino female mice. As to conditions: day 21, extract 200 mg/kg PO, compounds 50 mg/kg PO, vs control EAC. The protocol:
as §1
(§3) The day of tumor inoculation was considered as day zero (0). Treatment of groups (3–9) started at the 7th day after tumor inoculation, and continued for 2 weeks until day 21. The in vivo study was in accordance with the Guide for the Care and Use of Laboratory animals. The study protocol was approved by the ethical committee of Faculty of Pharmacy, Suez Canal University (code of approval 20201907RA2)
On the 21st day of EAC cells inoculation, blood samples were collected under light ether anesthesia from the orbital sinus (retro-orbital plexus). The blood samples were left to clot for 20 min followed by separation of the serum by centrifugation at 4000 rpm for 15 min. […]
as §2

The next test deals with VEGF-B. Put plainly: Serum VEGF-B by ELISA in EAC-bearing mice. Format: in vivo, Swiss albino female mice. The conditions noted are these: day 21, extract 200 mg/kg PO, compounds 50 mg/kg PO, days 7-21, vs control EAC. As to the method:
as §1, §3
On the 21st day of EAC cells inoculation, blood samples were collected under light ether anesthesia from the orbital sinus (retro-orbital plexus). The blood samples were left to clot for 20 min followed by separation of the serum by centrifugation at 4000 rpm for 15 min. Mice were sacrificed by cervical dislocation and tumor discs were separated, weighed and fixed in 10% neutral buffered formalin for immunohistochemical investigations.
Serum samples were stored at (−20 °C) and used for determination of the level of VEGF-B by ELISA kit (ab213897) (Abcam, Cambridge, UK) according to the manufacturer’s protocol.

In brackets after ≈: the same amount, converted by molar mass.

In general, IC50 refers to the concentration that gives 50% inhibition.

As for `CC1(C)CC[C@]2(C(=O)O)CC[C@]3(C)C(=CC[C@@H]4[C@@]5(C)CC[C@H](O)C(C)(C)[C@@H]5CC[C@]43C)[C@@H]2C1` [Compound 3, Oleanolic acid], the “VEGFR-2 expression (immunohistochemistry, stained area)” value in the test with VEGFR-2 is “significantly (p < 0.05) lowered VEGFR-2 expression”. The results for the IC50 (with normal Vero cell line; in test [1]) were over 50 µg/mL and 30 ± 0.14 µg/mL (≈ 65.7 µM), respectively.
Take `COc1cc(O)c2c(=O)c(O)c(-c3ccc(O)c(O)c3)oc2c1` [Compound 5, 5,3’,4’-trihydroxy-7 methoxyflavonol]: in test [2], the tumor weight entry is reported as “least tumor weights”. The “VEGFR-2 expression (immunohistochemistry, stained area)” value in the test on VEGFR-2 was “lowest expression”. The “CD34 expression (immunohistochemistry, stained area)” value (“CD34 expression” below) in the test on CD34 was “least expression of CD34”. In addition, the figures for the IC50 (with normal Vero cell line; in test [1]) were over 50 µg/mL and 18.5 ± 0.12 µg/mL (≈ 58.5 µM), respectively. For the same compound, the “serum VEGF-B levels” value in the test with VEGF-B is recorded as “nearly normalize VEGF-B levels”.
As to `COc1ccc(C2Oc3cc(O)cc(O)c3C(=O)C2O)cc1O` (stereo not drawn) [Compound 6, dihydroquercetin 4′-methyl ether], the tumor weight result in test [2] is reported as “least tumor weights”. In addition, the figures for the IC50 (in the test on normal Vero cell line; in test [1]) were over 50 µg/mL and 22.5 ± 0.06 µg/mL (≈ 70.7 µM), respectively.
Take `COc1cc(O)c(C(C)=O)c(OC)c1` [Compound 1, 2-hydroxy-4,6-dimethoxyacetophenone]: the IC50 came out at 46 ± 0.28 µg/mL (≈ 234 µM) in the test with normal Vero cell line and 23.5 ± 0.09 µg/mL (≈ 120 µM) in test [1]. Besides, the “serum VEGF-B levels” value in the test on VEGF-B is “nearly normalize VEGF-B levels”.
Take `COc1ccc(-c2cc(=O)c3c(O)c(OC)c(OC)cc3o2)cc1` [Compound 4, 5-hydroxy-4’,6,7-trimethoxyflavone]: the “CD34 expression” value with CD34 is “poor expression of CD34”. The results for the IC50 (in the test on normal Vero cell line; in test [1]) were over 50 µg/mL and 18 ± 0.08 µg/mL (≈ 54.8 µM), respectively. For the same compound, the “serum VEGF-B levels” value in the test on VEGF-B is on record as “nearly normalize VEGF-B levels”.
`COc1cccc2c1C(=O)c1c(O)c3c(c(O)c1C2=O)C[C@@](O)(C(=O)CO)C[C@@H]3O[C@H]1C[C@H](N)[C@H](O)[C@H](C)O1` [Doxo, doxorubicin, reference compound] returned an IC50 in the test on normal Vero cell line of 24.9 ± 0.17 µg/mL (≈ 45.8 µM).
Turning to `CC[C@H](/C=C/[C@@H](C)[C@H]1CC[C@H]2[C@@H]3CC=C4C[C@@H](O)CC[C@]4(C)[C@H]3CC[C@]12C)C(C)C` [Compound 2, Stigmasterol], the “CD34 expression” value with CD34 was “poor expression of CD34”. Also, the IC50 in the test with normal Vero cell line is over 50 µg/mL; in test [1], 47 ± 0.06 µg/mL (≈ 114 µM). Besides, in the test on VEGF-B, the “serum VEGF-B levels” value is given as “nearly normalize VEGF-B levels”.
